Reference: patent US6933298B2, “Pyridine-2,4-dicarboxylic acid diamides and pyrimidine-4,6-dicarboxylic acid diamides and the use thereof for selectively inhibiting collagenases” (Aventis Pharma Deutschland GmbH, priority 2001, dated 2005)

Molecular target: T1, catalytic domain of human collagenase-3 (MMP-13) (Homo sapiens, UniProt P45452)
T1 construct: Determining the enzymic activity of the catalytic domain of human collagenase-3 (MMP-13); purchased INVITEK, Berlin 30 100 803
Assay: Enzymic activity of the catalytic domain of human collagenase-3 (MMP-13), fluorogenic substrate
Assay type: biochemical
Conditions: activated with APMA, pH 7.5, read-out: IC50 MMP13
Method: Determining the enzymic activity of the catalytic domain of human collagenase-3 (MMP-13).
Activation of the proenzyme:
2 parts by volume of proenzyme are incubated with 1 part by volume of APMA solution at 37° C. for 1.5 hours. The APMA solution is prepared from a 10 mmol/l solution of p-aminophenylmercuric acetate in 0.1 mmol/l NaOH by diluting it with 3 parts by volume of Tris/HCl buffer, pH 7.5 (see below). The pH is adjusted to between 7.0 and 7.5 by adding 1 mmol/l HCl.
In order to measure the enzyme activity, 10 μl of enzyme solution are incubated for 15 minutes with 10 μl of a buffered 3% (v/v) solution of dimethyl sulfoxide (reaction 1). In order to measure the enzyme inhibitor activity, 10 μl of enzyme solution are incubated with 10 μl of a buffered 3% (v/v) solution of dimethyl sulfoxide which contains the enzyme inhibitor (reaction 2).
The enzyme activity is presented as increase in extinction/minute.
The buffer solution contains 0.05% Brij (Sigma, Deisenhofen, Germany) and also 0.1 mol of Tris/HCl/l, 0.1 mol of NaCl/1 and 0.01 mol of CaCl2/l (pH=7.5).
The substrate solution contains 0.75 mmol of the fluorogenic substrate (7-methoxycoumarin-4-yl)acetyl-Pro-Leu-Gly-Leu-3-(2′,4′-dinitrophenyl)-L-2,3-diaminopropionyl-Ala-Arg-NH2/I(Bachem, Heidelberg, Germany).

Row | IC50 [µM] | SMILES
1 | 0.023 | O=C(NCc1ccc(F)c(Cl)c1)c1cc(C(=O)NCc2ccc(F)c(Cl)c2)ncn1 [Example 2, Pyrimidine-4,6-dicarboxylic acid bis(3-chloro-4-fluorobenzylamide)]
2 | 5.6 | O=C(NCc1ccc(Cl)cc1)c1cc(C(=O)NCc2ccc(Cl)cc2)ncn1 [Example 3]
3 | 3.4 | O=C(NCc1ccccc1)c1ccnc(C(=O)NCc2ccccc2)c1 [Example 4]
4 | 2 | Cc1ccc(CNC(=O)c2cc(C(=O)NCc3ccc(C)cc3)ncn2)cc1 [Example 5]
5 | 0.7 | O=C(NCc1cccc(OC(F)(F)F)c1)c1cc(C(=O)NCc2cccc(OC(F)(F)F)c2)ncn1 [Example 6]
6 | 0.62 | O=C(NCc1ccc(F)cc1)c1ccnc(C(=O)NCc2ccc(F)cc2)c1 [Example 7]
7 | 0.4 | Cc1cccc(CNC(=O)c2ccnc(C(=O)NCc3cccc(C)c3)c2)c1 [Example 8]
8 | 0.32 | COc1ccc(CNC(=O)c2ccnc(C(=O)NCc3ccc(OC)cc3)c2)cc1 [Example 9]
9 | 0.3 | O=C(NCc1cc(F)cc(F)c1)c1cc(C(=O)NCc2cc(F)cc(F)c2)ncn1 [Example 10]
10 | 0.3 | O=C(NCc1cccc(C(F)(F)F)c1)c1cc(C(=O)NCc2cccc(C(F)(F)F)c2)ncn1 [Example 11]
11 | 0.26 | O=C(NCc1cccc(Cl)c1)c1ccnc(C(=O)NCc2cccc(Cl)c2)c1 [Example 12]
12 | 0.21 | O=C(NCc1ccc(F)c(C(F)(F)F)c1)c1cc(C(=O)NCc2ccc(F)c(C(F)(F)F)c2)ncn1 [Example 13]
13 | 0.2 | O=C(NCc1cccc(F)c1)c1cc(C(=O)NCc2cccc(F)c2)ncn1 [Example 14]
14 | 0.19 | O=C(NCc1ccc(F)cc1)c1cc(C(=O)NCc2ccc(F)cc2)ncn1 [Example 15]
15 | 0.105 | O=C(NCc1ccc(F)c(F)c1)c1cc(C(=O)NCc2ccc(F)c(F)c2)ncn1 [Example 16]
16 | 0.08 | COc1ccc(CNC(=O)c2cc(C(=O)NCc3ccc(OC)cc3)ncn2)cc1 [Example 17]
17 | 0.057 | O=C(NCc1cccc(Cl)c1)c1cc(C(=O)NCc2cccc(Cl)c2)ncn1 [Example 19]
18 | 0.014 | O=C(NCc1ccc2c(c1)OCO2)c1cc(C(=O)NCc2ccc3c(c2)OCO3)ncn1 [Example 20]
19 | 0.01 | COc1cccc(CNC(=O)c2cc(C(=O)NCc3cccc(OC)c3)ncn2)c1 [Example 21]
20 | 0.009 | O=C(NCc1ccc2c(c1)CCO2)c1cc(C(=O)NCc2ccc3c(c2)CCO3)ncn1 [Example 22]
